Patent publication US4965273A, “Certain 1-tertiary-butyl-naphthyridone carboxylic acid derivatives anti-bacterial agents” (priority 1988, dated 1990)
Values after ≈ are worked out from the molar mass of the structure shown.

Experiments:
Staphylococcus aureus = assay: Minimum inhibitory concentration (MIC), microtitration dilution method of Heifetz et al.; type: cell-based; settings: Table 2
Description: (§1) The compounds of this invention display antibacterial activity when tested by the microtitration dilution method reported by Heifetz et al., Antimicr. Agents & Chemoth., 6. 124 (1974). Minimum inhibitory concentrations (MICs, in μg/ml) for but a few representative compounds according to this invention were determined by the above-mentioned method.

Escherichia coli = assay: as above; type: cell-based; settings: Table 2
Description: as §1

Streptococcus faecium = assay: as above; type: cell-based; settings: Table 2
Description: as §1

Klebsiella oxytoca = assay: as above; type: cell-based; settings: Table 2
Description: as §1

Streptococcus faecalis = assay: as above; type: cell-based
Description: as §1

Pseudomonas aeruginosa = assay: as above; type: cell-based; settings: Table 2
Description: as §1

Enterobacter cloacae = assay: as above; type: cell-based; set-up: unit not given here; settings: Table 2
[1] = from Tables 2, 3 and 4

## CC(C)(C)n1cc(C(=O)O)c(=O)c2cc(F)c(N3C[C@@H]4CC[C@H]3CN4)nc21 [Example 23, 7-(1S,4S-2,5-diazabicyclo[2.2.2]octan-2-yl)-1-(1,1-dimethylethyl)-1,4-dihydro-6-fluoro-4-oxo-1,8-naphthyridine-3-carboxylic acid]
Staphylococcus aureus
  MIC S. aur.: 0.03 µg/mL (≈ 0.0801 µM)
Escherichia coli
  MIC E. coli: 0.13 µg/mL (≈ 0.347 µM)
Streptococcus faecium
  MIC S. faeci.: 2.0 µg/mL (≈ 5.34 µM)
Klebsiella oxytoca
  MIC K. oxyto.: 0.5 µg/mL (≈ 1.34 µM)
Streptococcus faecalis; Table 2, Streptococcus faecalis
  MIC S. faecal.: 0.5 µg/mL (≈ 1.34 µM)
Pseudomonas aeruginosa
  MIC P. aer.: 1.0 µg/mL (≈ 2.67 µM)
Enterobacter cloacae
  MIC E. clo.: 0.06

## CC(C)(C)n1cc(C(=O)O)c(=O)c2cc(F)c(N3C[C@H]4C[C@@H]3CN4)nc21 [Example 30, 7-(1R,4R-2,5-diazabicyclo[2.2.1]heptan-2-yl)-1-(1,1-dimethylethyl)-1,4-dihydro-6-fluoro-4-oxo-1,8-naphthyridine-3-carboxylic acid]
[1]
  combination of anti-bacterial, toxicity, and water-solubility properties: highly advantageous combination of the above mentioned properties

## O=C(O)c1cn(C2CC2)c2cc(N3CCNCC3)c(F)cc2c1=O [Cip., 1-cyclopropyl-6-fluoro-1,4-dihydro-7-(1-piperazinyl)-4-oxo-quinoline-3-carboxylic acid, reference compound]
Streptococcus faecalis; Enterococcus faecalis, read-out: MIC S. faecal.
  MIC: 0.5 µg/mL (≈ 1.51 µM)
